{
  "source": "paper PMC4999848",
  "about": "(Toxins, 2016)",
  "key": {"small intestinal explant": {"test_system": "small intestinal explant", "experiment": "Deacetylation of 3/15ADON by human small intestinal explants", "assay_type": "in vitro ADME", "conditions": "for Contribution to total deacetylation activity: Small intestine: percentage of sum of specific activities (Figure 8); for Disappearance of 3/15ADON, specific activity: small intestinal explant, 37 °C, substrate 100 μM; for % of deacetylation: small intestinal explants, 6 h incubation, 100 μM", "from_the_text": "Human tissue samples were obtained from patients undergoing surgery at the Hospital Nord of Marseille, unit of general and gastrointestinal surgery according to a collaborative “clinical transfer” project. The procedures were approved by the French ethic committee (CODECOH n° DC-2011-1319). Patients were from both genders (six men, three women), 31–74 years of age, all of European origin. All patients agree to use their tissues for research purposes. Samples were taken from macroscopically unaffected area as identified by the surgeon for intestinal samples or the pathologist for liver resections. Diagnoses leading to surgery were carcinoma for intestine or liver. After resection, the specimens were placed in ice-cold non-sterile Krebs solution implemented and transferred to the school of medicine on the same campus within 5 min, composition of the Krebs solution being previously described. The tissues were rinsed several times and maintained in oxygenated Krebs during 1 h for recovery before final dissection. Intestinal and hepatic resections were extensively washed and maintained in ice-cold culture media containing 1% streptomycin/penicillin solution and 50 μg/mL gentamycin. Tissues were cleaned from vascular vessels and conjunctive tissue using forceps under binocular microscope. In case of intestinal resection, muscularis and plexus were removed and only epithelial layer was kept. Intestinal and hepatic explants (wet weight of 20–30 mg) were then isolated from the cleaned resections using surgical punch (diameter of […]). […] Finally, the explants were washed 3 times with PBS^++ and transferred into 6-well plates before being used for deacetylation assay.\nStock solutions of DON, 3ADON and 15ADON at 2 mg/mL were prepared in absolute ethanol and stored at −20 °C. For deacetylation assay, 3- or 15ADON were incubated with cells, explants, bacteria or digestive enzymes after being diluted in PBS^++ at a final concentration of 100 μM. PBS^++ solution containing only ethanol (at 1.5% final concentration) or DON (at 100 μM) were used in parallel as negative and positive control, respectively. For cells and explants, deacetylation assay take place in 6-well plates, wells being filled with 2 mL of PBS^++ containing either ethanol, DON, 3- or 15ADON. For fecal bacteria and digestive enzyme assay, deacetylation assay was conducted in 2 mL Eppendorf tubes filled with 1.5 mL of PBS^++ containing either ethanol, DON, 3- or 15ADON. In vitro intestinal digestion by luminal enzymes was performed using porcine enzymes from Sigma-Aldrich and physiological conditions. Briefly, 3- or 15ADON were incubated with pepsin (at 1.6 mg/mL corresponding to 900 U/mL), trypsin (at 0.35 mg/mL corresponding to 6000 U/mL), pancreatic lipase (at 0.75 mg/mL corresponding to 18 U/mL) or pancreatin (at 1.23 mg/mL, lipase activity >10 U/mL, protease activity >100 U/mL, amylase activity >100 U/mL). Except for pepsin for which the digestion was conducted in HCl solution at 10 mM (pH 2.3), in vitro digestion was performed in PBS^++ (pH 7.4). Finally, deacetylation assay was also performed with commercial pooled S9 fractions from human liver, small intestine and kidneys as well as with pure recombinant human CES1 and CES2. S9 fractions and CES1/2 were used at 0.1 mg/mL and 5 μg/mL (corresponding to CES activity >20 U/mL), respectively. In all cases, aliquots of the reaction solution were collected immediately (i.e., “time zero” sample) or after the indicated time period at 37 °C and analyzed by HPLC. […] In all cases, the experiments were conducted in triplicate (n = 3)."}, "[1]": {"set-up": "method as in PMID 26343882", "conditions": "pigs, oral and intravenous (i.v) exposures; cited from earlier work"}, "recombinant human CES2": {"molecular_target": "T1, recombinant human CES2 (Homo sapiens, UniProt O00748)", "T1 sequence (O00748 27-559)": "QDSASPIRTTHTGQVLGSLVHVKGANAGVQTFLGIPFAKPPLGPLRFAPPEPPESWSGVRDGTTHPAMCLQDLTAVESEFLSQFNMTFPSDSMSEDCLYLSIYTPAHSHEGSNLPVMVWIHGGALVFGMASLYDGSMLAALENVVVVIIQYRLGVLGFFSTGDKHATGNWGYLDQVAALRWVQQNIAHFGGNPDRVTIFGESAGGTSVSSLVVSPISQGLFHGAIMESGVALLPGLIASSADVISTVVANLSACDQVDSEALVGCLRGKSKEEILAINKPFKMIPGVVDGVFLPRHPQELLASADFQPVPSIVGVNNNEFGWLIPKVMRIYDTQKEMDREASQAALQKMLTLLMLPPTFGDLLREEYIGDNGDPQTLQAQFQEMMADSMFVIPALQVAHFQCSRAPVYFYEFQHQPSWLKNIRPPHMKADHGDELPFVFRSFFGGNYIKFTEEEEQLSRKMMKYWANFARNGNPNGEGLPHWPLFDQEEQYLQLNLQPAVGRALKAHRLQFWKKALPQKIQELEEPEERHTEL", "experiment": "Deacetylation of 3/15ADON by recombinant CES2", "assay_type": "in vitro ADME", "set-up": "purchased R&D Systems", "conditions": "5 μg/mL CES2, up to 24 h, data not shown", "protocol": "Stock solutions of DON, 3ADON and 15ADON at 2 mg/mL were prepared in absolute ethanol and stored at −20 °C. For deacetylation assay, 3- or 15ADON were incubated with cells, explants, bacteria or digestive enzymes after being diluted in PBS^++ at a final concentration of 100 μM. PBS^++ solution containing only ethanol (at 1.5% final concentration) or DON (at 100 μM) were used in parallel as negative and positive control, respectively. For cells and explants, deacetylation assay take place in 6-well plates, wells being filled with 2 mL of PBS^++ containing either ethanol, DON, 3- or 15ADON. For fecal bacteria and digestive enzyme assay, deacetylation assay was conducted in 2 mL Eppendorf tubes filled with 1.5 mL of PBS^++ containing either ethanol, DON, 3- or 15ADON. In vitro intestinal digestion by luminal enzymes was performed using porcine enzymes from Sigma-Aldrich and physiological conditions. […] In all cases, aliquots of the reaction solution were collected immediately (i.e., “time zero” sample) or after the indicated time period at 37 °C and analyzed by HPLC. […]\nDeacetylation was monitoring both in term of disappearance of 3- or 15ADON and formation of DON. […] Quantification was based on calibration with the corresponding standard using Millinium Software (Waters, Saint Quentin Falavier, France)."}},
  "note": "Values joined by “and” are separate entries in the source; they are usually repeats but may differ in a detail not shown here. Equal values may be shown once. “Also recorded” adds a separate entry of the source.",
  "data": [
    {"compound": "CC(=O)OC[C@]12[C@H](O)C(=O)C(C)=C[C@H]1O[C@@H]1[C@H](O)C[C@@]2(C)[C@]12CO2", "note": "[15ADON, 15-acetyldeoxynivalenol]", "values": [
      {"measurement": "Contribution to total deacetylation activity: Small intestine", "setting": "small intestinal explant", "value": 13, "unit": "%"},
      {"measurement": "Disappearance of 3/15ADON, specific activity", "setting": "small intestinal explant", "value": "85 pmol/min/mg and 85 ± 65 pmol/min/mg"},
      {"measurement": "% of deacetylation", "setting": "small intestinal explant", "value": "17.2% ± 13.4%"},
      {"measurement": "Transformation into DON in vivo", "setting": "[1]", "value": "complete transformation into DON"},
      {"measurement": "Deacetylation activity of CES2 on 3/15ADON", "setting": "recombinant human CES2", "value": "failed at observing any deacetylation activity; also recorded: unable to cause the deacetylation"}
    ]},
    {"compound": "CC(=O)O[C@@H]1C[C@]2(C)[C@@]3(CO)[C@H](O)C(=O)C(C)=C[C@H]3O[C@H]1[C@@]21CO1", "note": "[3ADON, 3-acetyldeoxynivalenol]", "values": [
      {"measurement": "Contribution to total deacetylation activity: Small intestine", "setting": "small intestinal explant", "value": 26, "unit": "%"},
      {"measurement": "Disappearance of 3/15ADON, specific activity", "setting": "small intestinal explant", "value": "338 pmol/min/mg and 338 ± 69 pmol/min/mg"},
      {"measurement": "% of deacetylation", "setting": "small intestinal explant", "value": "67.3% ± 13.8%"},
      {"measurement": "Transformation into DON in vivo", "setting": "[1]", "value": "complete transformation into DON"},
      {"measurement": "Deacetylation activity of CES2 on 3/15ADON", "setting": "recombinant human CES2", "value": "failed at observing any deacetylation activity; also recorded: unable to cause the deacetylation"}
    ]}
  ]
}
